Structures can show the parent of a compound that is named as a salt.
Columns and labels:
Assay type in all cases: in vivo
[1] = system: ventricular arrhythmia produced by chloroform; assay: Antiarrhythmic activity: protection from chloroform-induced ventricular arrhythmia in mice (Lawson model); conditions: mouse; for Antiarrhythmic activity, ED50 symbol (failed screening dose) / mice protected of 5: 31 mg/kg i.p.; for Antiarrhythmic activity, ED50 symbol (failed screening dose): groups of 5 mice; for ED50: ip, 10 min, i.p., 10 min before chloroform, 95% confidence limits in parentheses, read-out: ED50 (95% C.L.)
Experimental: The antiarrhythmic activity of the compounds of this invention was determined in the experimental model described by J. W. Lawson (J. Pharmacol. Exper. Therap. 160:22-31, 1968). Test compounds were administered to groups of 5 mice at an intraperitoneal dose of 31 mg/kg. Ten minutes after injection each mouse was placed in a covered 300 ml glass beaker which contained cotton saturated with chloroform. The animal was observed closely and removed from the beaker immediately after respiratory arrest. The heart was quickly exposed by making an incision through the abdomen, diaphragm, thorax and pericardium for visual inspection of ventricular rate and rhythm. Ventricular contractions were counted for 30 seconds and animals with a rate not exceeding 100 beats per 30 seconds were considered protected from the ventricular arrhythmia produced by chloroform. Compounds protecting at least 3 of the 5 mice were subsequently tested at various doses and the results obtained were used to calculate the mean effective doses (ED50) and 95% confidence limits after the method of Litchfield and Wilcoxon (J. Pharmacol. Exper. Therap. 96:99-113, 1949). Table A presents the results obtained in the antiarrhythmic study.

Systolic Blood Pressure = assay: Antihypertensive activity: indirect systolic blood pressure in renal hypertensive rats; conditions: rat, 31 mg/kg p.o., * in table = statistically significant change from control
Experimental: Rats were made hypertensive by applying a figure of eight ligature to one kidney and removing the contralateral kidney two weeks later. At least four weeks after the second operation the animals were subjected to indirect systolic blood pressure measurements with an occluding cuff and pulse sensor system applied to the tail. Pressure measurements were made before and 1,2,4,6 and 8 hours after oral administration of the test compounds at a dose of 31 mg/kg. Each compound was tested in 5 or 10 rats. Statistical significance of differences between control and post treatment values was determined by Wilcoxon's signed rank test (F. Wilcoxon and R. A. Wilcox, Some Rapid Approximate Statistical Procedures, Lederle Laboratories, Pearl River, 1964).

dog heart in situ = assay: Antianginal activity: aortic-coronary sinus difference in oxygen (myocardial oxygen consumption) in anesthetized dogs; conditions: 1 mg/kg i.v.; for antianginal activity (conclusion in words): based upon comparison with nitroglycerin, named compounds 'particularly'
Experimental: Angina pectoris is a clinical condition of hypoxia that results from an imbalance in myocardial oxygen supply and demand. A drug reducing oxygen demand is useful in the treatment of angina pectoris, as has been the case with nitroglycerin and the beta-adrenergic blocking agents like propranolol (J. R. Paratt, Advan. Drug Res. 9:103-134, 1974). Accordingly,the antianginal activity of 2-substituted indoloquinolizines was evaluated by assessing their capacity to reduce oxygen consumption by the dog heart in situ. This method allows measurement of the difference in oxygen content of the arterial and venous blood.
Mongrel dogs were anesthetized with pentobarbital and cannulas inserted in the trachea and in a femoral vein for artificial respiration with room air and for injection of test compounds, respectively. Heparin was administered intravenously to prevent blood clotting. The chest was opened at the sternal midline and an additional cannula introduced in the coronary sinus. Samples of blood were obtained from the coronary sinus cannula and from the thoracic aorta by direct puncture of the vessel. Partial pressure of oxygen in the samples was determined with a blood gas analyzer. Test compounds were injected intravenously at a dose of 1 mg/kg; oxygen measurements were made before administration and at 1, 5, 10, 20, 30, 40, 50 and 60 min after administration. One animal was used per test compound. As the standard of comparison, nitroglycerin was administered to a test animal and measurements were made in a similar manner.
Differences between partial pressure values in arterial and venous blood samples were calculated for each measurement. Since coronary sinus blood is representative of the venous effluent from the heart, these differences reflect the consumption of oxygen by the myocardium. Thus, the decrease in arteriovenous oxygen difference produced by the compounds by this invention indicates a reduction in myocardial oxygen consumption.

Row | SMILES | Antiarrhythmic activity, ED50 symbol (failed screening dose) [1] | Change in Systolic Blood Pressure at 1 hr (Systolic Blood Pressure) [mmHg] | Change in Systolic Blood Pressure at 2 hr (Systolic Blood Pressure) | Change in Systolic Blood Pressure at 4 hr (Systolic Blood Pressure) | Change in Systolic Blood Pressure at 6 hr (Systolic Blood Pressure) | Change in Systolic Blood Pressure at 8 hr (Systolic Blood Pressure) | Arterio-Venous Difference in Oxygen Partial Pressure at 1 min (dog heart in situ) [mmHg] | Arterio-Venous Difference in Oxygen Partial Pressure at 5 min (dog heart in situ) [mmHg] | Arterio-Venous Difference in Oxygen Partial Pressure at 10 min (dog heart in situ) [mmHg] | Arterio-Venous Difference in Oxygen Partial Pressure at 20 min (dog heart in situ) [mmHg] | Arterio-Venous Difference in Oxygen Partial Pressure at 30 min (dog heart in situ) [mmHg] | Arterio-Venous Difference in Oxygen Partial Pressure at 40 min (dog heart in situ) [mmHg] | Arterio-Venous Difference in Oxygen Partial Pressure at 50 min (dog heart in situ) [mmHg] | Arterio-Venous Difference in Oxygen Partial Pressure at 60 min (dog heart in situ) [mmHg] | ED50 [1] [mg/kg] | mice protected of 5 [1] | antianginal activity (conclusion in words) (dog heart in situ)
1 | Cc1cccc(NC2CCN3CCc4c(n(Cc5ccccc5)c5ccccc45)C3C2)c1.Cl.Cl (stereo not drawn) [TR3008, 12-benzyl-2-(3-methylanilino)-1,2,3,4,6,7,12,12b-octahydroindolo[2,3-a]quinolizine dihydrochloride] | * (Did not protect 3 of 5 mice and thus was not tested further.) | -27 | -24 mmHg | -17 mmHg | -17 mmHg | -20 mmHg | 20 | 23 | 22 | 23 | 25 | 25 | 24 | 25 | – | – | –
2 | O=[N+]([O-])c1cccc(NC2CCN3CCc4c(n(Cc5ccccc5)c5ccccc45)C3C2)c1 (stereo not drawn) [TR2998, 12-benzyl-2-(3-nitroanilino)-1,2,3,4,6,7,12,12b-octahydroindolo[2,3-a]quinolizine] | – | 0 | -2 mmHg | -4 mmHg | 0 mmHg | -4 mmHg | 12 | 16 | 18 | 17 | 18 | 17 | 19 | 20 | 12 | at least 3 of 5 mice | antianginal activity is seen
3 | NS(=O)(=O)c1ccc(NC2CCN3CCc4c(n(Cc5ccccc5)c5ccccc45)C3C2)cc1 (stereo not drawn) [TR3718, 12-benzyl-1,2,3,4,6,7,12,12b-octahydro-(4-sulfonamidoanilino)-indolo[2,3-a]quinolizine hydrochloride] | * (Did not protect 3 of 5 mice and thus was not tested further.) | -5 | -16 mmHg | -21 mmHg | -5 mmHg | +5 mmHg | 20 | 17 | 17 | 16 | 16 | 16 | 18 | 18 | – | – | –
4 | FC(F)(F)c1cccc(NC2CCN3CCc4c(n(Cc5ccccc5)c5ccccc45)C3C2)c1 (stereo not drawn) [TR3633, 12-benzyl-1,2,3,4,6,7,12,12b-octahydroindolo-2-(3-trifluoromethylanilino)[2,3-a]quinolizine dihydrochloride] | * (Did not protect 3 of 5 mice and thus was not tested further.) | -10 | +2 mmHg | +8 mmHg | +4 mmHg | +13 mmHg | 31 | 35 | 39 | 39 | 36 | 36 | 36 | 38 | – | – | antianginal activity is seen
5 | c1ccc(Cn2c3c(c4ccccc42)CCN2CCC(Nc4ccccc4)CC32)cc1 (stereo not drawn) [TR2981, 2-anilino-12-benzyl-1,2,3,4,6,7,12,12b-octahydroindolo[2,3-a]quinolizine dihydrochloride] | – | -2 | +5 mmHg | -5 mmHg | +7 mmHg | +16 mmHg | 17 | 20 | 21 | 22 | 23 | 24 | 24 | 24 | 31 | at least 3 of 5 mice | antianginal activity is seen
